Values quoted from earlier work as cited in patent publication US9764130B2, “Transdermal systems for the delivery of therapeutic agents including granisetron using iontophoresis” (Teva Pharmaceuticals International GmbH, priority 2005, dated 2017).

Settings: transdermal iontophoresis from anode pad; hairless rat animal model; AAPS 2003/2004 abstracts

time within which a therapeutic dosage is achieved with iontophoresis: two
Compound: CN1C2CCCC1CC(NC(=O)c1nn(C)c3ccccc13)C2 (stereo not shown) [granisetron]
